Experiment [1] has as its system HepG2. The experiment is described as follows: Antiproliferative activity against human HepG2 cells assessed as cell growth inhibition measured after 72 hrs by MTT assay. Conditions: HepG2, 72 h.
In experiment [2] the test system is MCF7. The experiment is described as follows: Antiproliferative activity against human MCF7 cells assessed as cell growth inhibition measured after 72 hrs by MTT assay. Conditions: MCF7, 72 h. On the technique in general: Formazan colour is commonly taken as a measure of viable cells.
Experiment [3] deals with A549. Nature of the experiment: Antiproliferative activity against human A549 cells assessed as cell growth inhibition measured after 72 hrs by MTT assay. Conditions: A549, 72 h.
Experiment [4] concerns the target Hepatocyte growth factor receptor (Homo sapiens, UniProt P08581). The experiment is described as follows: Inhibition of c-Met (unknown origin) by caliper mobility shift assay.
In experiment [5] the target is Macrophage-stimulating protein receptor (Homo sapiens, UniProt Q04912). Nature of the experiment: Inhibition of RON (unknown origin) by enzymatic assay.
In experiment [6] the test system is HepG2. The experiment is described as follows: Induction of apoptosis in human HepG2 cells assessed as dispersed nucleus at 0.24 uM by acridine orange staining based fluorescence microscopy. The class given is functional, cell-based.
The subject of experiment [7] is HepG2. Nature of the experiment: Induction of apoptosis in human HepG2 cells assessed as concentrated chromatin at 0.24 uM by acridine orange staining based fluorescence microscopy. Format: functional, cell-based.
Experiment [8] concerns the target Platelet-derived growth factor receptor beta (Homo sapiens, UniProt P09619). The experiment is described as follows: Inhibition of PDGFRbeta (unknown origin) by enzymatic assay.
In experiment [9] the test system is HepG2. The experiment is described as follows: Induction of apoptosis in human HepG2 cells assessed as decomposed nucleus at 0.24 uM by acridine orange staining based fluorescence microscopy. Format: functional, cell-based.
For experiment [10], the system named is A549. Nature of the experiment: Antiproliferative activity against human A549 cells assessed as cell growth inhibition measured after 72 hrs by MTT assay.
Experiment [11] deals with Vascular endothelial growth factor receptor 2 (Homo sapiens, UniProt P35968). The experiment is described as follows: Inhibition of VEGFR2 (unknown origin) by enzymatic assay.
In experiment [12] the test system is HepG2. Nature of the experiment: Induction of apoptosis in human HepG2 cells assessed as abnormal cell morphology at 0.24 uM by inverted microscopy microscopy. The class given is functional, cell-based.
Experiment [13] has as its target Mast/stem cell growth factor receptor Kit (Homo sapiens, UniProt P10721). The experiment is described as follows: Inhibition of c-Kit (unknown origin) by enzymatic assay.
Experiment [14] has as its target ALK tyrosine kinase receptor (Homo sapiens, UniProt Q9UM73). Nature of the experiment: Inhibition of ALK (unknown origin) by enzymatic assay.
For experiment [15], the system named is HepG2. The experiment is described as follows: Induction of apoptosis in human HepG2 cells assessed as abnormal cell morphology at 0.24 uM by acridine orange staining based fluorescence microscopy. The class given is functional.

Calls of active or inactive are those of the source. The rule behind the calls is not given here.

By IC50 is commonly meant the midpoint of a concentration-inhibition curve.

Chain of Hepatocyte growth factor receptor (P08581 whole entry): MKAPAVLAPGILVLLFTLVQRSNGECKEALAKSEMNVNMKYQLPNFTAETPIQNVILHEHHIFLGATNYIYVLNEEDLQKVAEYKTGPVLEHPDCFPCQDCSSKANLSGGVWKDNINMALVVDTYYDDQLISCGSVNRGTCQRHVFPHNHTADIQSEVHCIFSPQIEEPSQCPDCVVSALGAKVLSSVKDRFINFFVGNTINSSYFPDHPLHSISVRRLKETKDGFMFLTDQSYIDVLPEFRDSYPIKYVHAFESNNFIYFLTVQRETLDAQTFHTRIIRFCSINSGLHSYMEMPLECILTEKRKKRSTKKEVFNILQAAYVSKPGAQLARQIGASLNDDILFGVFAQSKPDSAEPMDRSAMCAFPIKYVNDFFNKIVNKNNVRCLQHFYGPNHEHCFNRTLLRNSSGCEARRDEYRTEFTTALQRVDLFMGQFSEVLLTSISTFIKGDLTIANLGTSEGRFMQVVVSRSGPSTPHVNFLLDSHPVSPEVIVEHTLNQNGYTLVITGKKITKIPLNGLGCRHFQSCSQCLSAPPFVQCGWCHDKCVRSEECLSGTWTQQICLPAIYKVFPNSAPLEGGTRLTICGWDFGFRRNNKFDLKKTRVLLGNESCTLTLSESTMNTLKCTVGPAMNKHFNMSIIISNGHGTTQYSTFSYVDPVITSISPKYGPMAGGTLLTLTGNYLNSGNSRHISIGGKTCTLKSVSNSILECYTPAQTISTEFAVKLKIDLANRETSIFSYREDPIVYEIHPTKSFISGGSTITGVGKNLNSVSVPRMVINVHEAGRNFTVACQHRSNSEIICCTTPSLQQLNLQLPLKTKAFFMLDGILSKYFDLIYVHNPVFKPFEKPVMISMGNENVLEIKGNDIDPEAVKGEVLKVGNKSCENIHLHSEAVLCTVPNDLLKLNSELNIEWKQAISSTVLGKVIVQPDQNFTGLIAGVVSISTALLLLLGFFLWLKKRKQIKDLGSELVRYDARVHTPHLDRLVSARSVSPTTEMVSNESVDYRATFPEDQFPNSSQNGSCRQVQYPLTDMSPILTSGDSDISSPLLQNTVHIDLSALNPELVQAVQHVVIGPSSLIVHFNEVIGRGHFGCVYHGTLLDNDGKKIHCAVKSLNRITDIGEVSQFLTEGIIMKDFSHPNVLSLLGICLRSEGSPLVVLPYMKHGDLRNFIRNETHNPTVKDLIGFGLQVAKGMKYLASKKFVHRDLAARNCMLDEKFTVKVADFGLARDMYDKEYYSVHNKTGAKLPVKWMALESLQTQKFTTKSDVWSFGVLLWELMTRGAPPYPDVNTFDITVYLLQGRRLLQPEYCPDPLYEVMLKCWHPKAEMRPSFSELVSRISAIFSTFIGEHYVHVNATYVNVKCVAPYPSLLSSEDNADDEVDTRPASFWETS
Chain of ALK tyrosine kinase receptor (Q9UM73 whole entry): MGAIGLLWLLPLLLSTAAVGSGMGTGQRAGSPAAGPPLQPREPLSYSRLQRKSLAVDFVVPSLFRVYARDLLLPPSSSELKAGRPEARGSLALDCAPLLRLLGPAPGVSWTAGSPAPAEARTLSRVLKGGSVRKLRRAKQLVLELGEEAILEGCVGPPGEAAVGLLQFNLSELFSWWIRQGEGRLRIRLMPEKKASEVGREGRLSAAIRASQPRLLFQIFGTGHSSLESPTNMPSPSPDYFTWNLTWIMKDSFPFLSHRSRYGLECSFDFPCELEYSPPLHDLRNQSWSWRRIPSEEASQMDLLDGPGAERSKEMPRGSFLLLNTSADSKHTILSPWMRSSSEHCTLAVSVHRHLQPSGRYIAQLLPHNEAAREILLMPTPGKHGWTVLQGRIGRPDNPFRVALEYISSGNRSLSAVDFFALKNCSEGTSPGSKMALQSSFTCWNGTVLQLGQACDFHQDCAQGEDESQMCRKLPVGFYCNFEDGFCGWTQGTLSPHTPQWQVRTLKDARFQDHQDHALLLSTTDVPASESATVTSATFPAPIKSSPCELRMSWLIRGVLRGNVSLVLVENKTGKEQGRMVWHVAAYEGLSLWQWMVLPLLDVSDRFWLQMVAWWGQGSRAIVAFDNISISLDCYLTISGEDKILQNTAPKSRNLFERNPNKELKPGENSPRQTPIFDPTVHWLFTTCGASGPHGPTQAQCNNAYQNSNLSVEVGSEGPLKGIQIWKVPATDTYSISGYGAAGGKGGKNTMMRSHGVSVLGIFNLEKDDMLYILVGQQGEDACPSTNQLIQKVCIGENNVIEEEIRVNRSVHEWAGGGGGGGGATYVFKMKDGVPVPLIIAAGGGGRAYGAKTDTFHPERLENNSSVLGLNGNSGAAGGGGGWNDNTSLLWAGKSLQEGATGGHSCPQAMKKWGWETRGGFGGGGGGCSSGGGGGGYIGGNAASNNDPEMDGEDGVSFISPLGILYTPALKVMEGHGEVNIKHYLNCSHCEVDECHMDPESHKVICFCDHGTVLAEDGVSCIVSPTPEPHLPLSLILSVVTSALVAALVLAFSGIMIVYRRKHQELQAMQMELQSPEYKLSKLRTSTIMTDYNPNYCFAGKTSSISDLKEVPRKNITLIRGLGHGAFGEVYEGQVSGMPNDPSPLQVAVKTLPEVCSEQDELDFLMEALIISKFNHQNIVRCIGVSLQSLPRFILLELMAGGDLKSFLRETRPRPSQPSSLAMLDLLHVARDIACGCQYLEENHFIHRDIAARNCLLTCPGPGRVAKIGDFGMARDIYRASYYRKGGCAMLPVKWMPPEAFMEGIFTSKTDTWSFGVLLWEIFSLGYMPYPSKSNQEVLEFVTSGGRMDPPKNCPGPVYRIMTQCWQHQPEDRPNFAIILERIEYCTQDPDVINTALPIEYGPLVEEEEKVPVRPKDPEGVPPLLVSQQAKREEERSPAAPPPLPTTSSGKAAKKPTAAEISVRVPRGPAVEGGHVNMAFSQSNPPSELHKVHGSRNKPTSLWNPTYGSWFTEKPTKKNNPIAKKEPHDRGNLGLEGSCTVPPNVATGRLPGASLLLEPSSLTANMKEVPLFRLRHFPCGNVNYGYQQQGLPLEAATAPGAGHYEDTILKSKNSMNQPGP
Chain of Platelet-derived growth factor receptor beta (P09619 whole entry): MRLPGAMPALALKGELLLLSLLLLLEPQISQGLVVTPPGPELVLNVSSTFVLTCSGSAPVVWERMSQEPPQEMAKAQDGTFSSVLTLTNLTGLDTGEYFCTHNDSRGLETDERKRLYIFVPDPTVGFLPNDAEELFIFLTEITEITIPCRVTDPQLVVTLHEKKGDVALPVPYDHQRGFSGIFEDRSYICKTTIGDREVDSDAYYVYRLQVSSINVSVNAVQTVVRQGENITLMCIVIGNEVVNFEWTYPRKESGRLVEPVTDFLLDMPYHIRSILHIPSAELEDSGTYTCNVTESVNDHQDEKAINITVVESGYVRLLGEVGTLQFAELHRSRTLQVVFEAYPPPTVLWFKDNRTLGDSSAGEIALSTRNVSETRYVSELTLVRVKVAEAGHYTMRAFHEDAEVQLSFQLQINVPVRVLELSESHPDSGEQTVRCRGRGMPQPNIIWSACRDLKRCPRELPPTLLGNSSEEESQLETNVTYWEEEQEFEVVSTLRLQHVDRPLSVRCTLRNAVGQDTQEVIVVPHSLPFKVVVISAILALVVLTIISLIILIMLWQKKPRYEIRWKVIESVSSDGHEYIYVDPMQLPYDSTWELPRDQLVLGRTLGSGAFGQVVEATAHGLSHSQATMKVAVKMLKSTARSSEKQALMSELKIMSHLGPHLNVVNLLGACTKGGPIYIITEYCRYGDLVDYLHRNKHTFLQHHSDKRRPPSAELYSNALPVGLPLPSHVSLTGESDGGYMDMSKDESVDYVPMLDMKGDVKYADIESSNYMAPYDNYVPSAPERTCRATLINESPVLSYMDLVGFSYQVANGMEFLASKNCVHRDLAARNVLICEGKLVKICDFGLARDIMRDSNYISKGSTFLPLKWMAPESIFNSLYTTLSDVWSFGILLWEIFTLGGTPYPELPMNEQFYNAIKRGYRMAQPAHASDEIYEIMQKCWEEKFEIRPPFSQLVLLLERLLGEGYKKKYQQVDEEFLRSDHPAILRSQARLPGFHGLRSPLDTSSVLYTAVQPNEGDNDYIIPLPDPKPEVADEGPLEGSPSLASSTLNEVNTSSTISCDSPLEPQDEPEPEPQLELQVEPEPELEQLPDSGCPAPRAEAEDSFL
Chain of Mast/stem cell growth factor receptor Kit (P10721 whole entry): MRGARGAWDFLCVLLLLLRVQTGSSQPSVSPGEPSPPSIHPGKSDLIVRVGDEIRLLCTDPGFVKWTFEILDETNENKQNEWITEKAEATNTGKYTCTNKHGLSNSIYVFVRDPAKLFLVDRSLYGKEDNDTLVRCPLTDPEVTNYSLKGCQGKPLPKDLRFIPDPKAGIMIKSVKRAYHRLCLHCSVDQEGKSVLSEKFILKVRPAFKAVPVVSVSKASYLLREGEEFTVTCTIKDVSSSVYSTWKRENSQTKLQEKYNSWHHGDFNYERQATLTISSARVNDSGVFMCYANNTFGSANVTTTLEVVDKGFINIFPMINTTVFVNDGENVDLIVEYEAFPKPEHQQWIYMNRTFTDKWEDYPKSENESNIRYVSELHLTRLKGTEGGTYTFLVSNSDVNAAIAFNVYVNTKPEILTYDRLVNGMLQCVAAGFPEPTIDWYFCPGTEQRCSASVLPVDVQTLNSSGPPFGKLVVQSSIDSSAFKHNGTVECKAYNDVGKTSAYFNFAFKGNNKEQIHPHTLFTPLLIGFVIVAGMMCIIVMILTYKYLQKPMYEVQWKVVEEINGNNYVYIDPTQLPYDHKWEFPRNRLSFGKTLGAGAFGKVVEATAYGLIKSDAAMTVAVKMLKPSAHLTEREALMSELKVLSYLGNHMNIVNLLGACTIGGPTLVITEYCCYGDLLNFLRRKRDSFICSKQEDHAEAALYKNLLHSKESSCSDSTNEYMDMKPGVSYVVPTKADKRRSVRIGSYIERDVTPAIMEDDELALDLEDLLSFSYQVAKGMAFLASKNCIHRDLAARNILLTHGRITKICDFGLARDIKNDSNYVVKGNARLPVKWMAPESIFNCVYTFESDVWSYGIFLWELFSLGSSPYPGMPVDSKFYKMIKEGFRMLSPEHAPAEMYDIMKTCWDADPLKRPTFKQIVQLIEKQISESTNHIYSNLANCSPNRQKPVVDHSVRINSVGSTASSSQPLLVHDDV

Consider `O=C(Nc1ccc(Oc2ccnc3[nH]ccc23)c(F)c1)c1cn(-c2ccc(Br)cc2)c2ccccc2c1=O`, for which the IC50 turned out to be 0.71 µM in experiment [1], 0.65 µM in experiment [2] and 0.95 µM in experiment [3].
The like results for `O=C(Nc1ccc(Oc2ccnc3[nH]ccc23)cc1)c1cn(-c2ccc(F)c(Cl)c2)c2ccccc2c1=O` were, in that order, 1.12 µM, 1.51 µM and 4.81 µM.
Turning to `Cn1ccc2c(Oc3ccc(NC(=O)c4cn(-c5ccc(C(F)(F)F)cc5Cl)c5ccccc5c4=O)cc3F)ccnc21`, the IC50 turned out to be 0.19 µM in experiment [2] and 2.05 µM in experiment [3].
`Cn1ccc2c(Oc3ccc(NC(=O)c4cn(-c5ccc(Cl)cc5)c5ccccc5c4=O)cc3F)ccnc21`: the IC50 in experiment [1] was determined as 0.29 µM; in experiment [2], 2.12 µM; in experiment [4], 0.087 µM; in experiment [3], 0.25 µM.
On to `Cn1ccc2c(Oc3ccc(NC(=O)c4cn(-c5ccc(F)c(Cl)c5)c5ccccc5c4=O)cc3F)ccnc21`, for which the IC50 in experiment [3] stood at 1.21 µM.
Turning to `O=C(Nc1ccc(Oc2ccnc3[nH]ccc23)c(F)c1)c1cn(-c2ccc(F)cc2)c2ccccc2c1=O`, the IC50 in [1] was 0.27 µM; in [5], more than 10 µM; in experiment [8] it was more than 10 µM; in experiment [2] it was 0.52 µM; in experiment [11], more than 10 µM; in experiment [3] it was 0.29 µM. The IC50 is 1.31 µM in [13] and more than 10 µM in experiment [14]. Besides, the result in experiment [6], in experiment [7], in [9], in [12] and in [15] was Active. Besides, the inhibition result in experiment [10] is “Dose-dependent effect”.
In the case of `O=C(Nc1ccc(Oc2ccnc3[nH]ccc23)cc1)c1cn(-c2ccc(Br)cc2)c2ccccc2c1=O`, the half-maximal inhibitory concentration (IC50) turned out to be 0.22 µM in [1], 0.61 µM in experiment [2], 0.01 µM in experiment [4] and 0.45 µM in experiment [3].
Turning to `Cn1ccc2c(Oc3ccc(NC(=O)c4cn(-c5ccc(Br)cc5)c5ccccc5c4=O)cc3F)ccnc21`, the IC50 was 1.26 µM in experiment [1], 1.83 µM in [2] and 1.39 µM in [3].
The like results for `COc1ccc(-n2cc(C(=O)Nc3ccc(Oc4ccnc5[nH]ccc45)c(F)c3)c(=O)c3ccccc32)cc1` were, in that order, 6.53 µM, 6.62 µM and 4.15 µM.
`O=C(Nc1ccc(Oc2ccnc3[nH]ccc23)cc1)c1cn(-c2ccc(C(F)(F)F)cc2Cl)c2ccccc2c1=O`: the IC50 amounted to 3.57 µM in [2] and 2.35 µM in experiment [3].
`O=C(Nc1ccc(Oc2ccnc3[nH]ccc23)cc1)c1cn(-c2ccccc2)c2ccccc2c1=O`: the IC50 in experiment [1] worked out at 2.25 µM; in experiment [2], 3.56 µM; in experiment [3], 1.03 µM.
Regarding `Cn1ccc2c(Oc3ccc(NC(=O)c4cn(-c5ccc(F)cc5)c5ccccc5c4=O)cc3F)ccnc21`, the half-maximal inhibitory concentration (IC50) in experiment [1] was determined as 2.01 µM; in experiment [3], 1.46 µM.
For the compound `O=C(Nc1ccc(Oc2ccnc3[nH]ccc23)c(F)c1)c1cn(-c2ccc(C(F)(F)F)cc2Cl)c2ccccc2c1=O`, the IC50 in experiment [1] was 1.84 µM; in [2], 1.12 µM; in experiment [3], 1.62 µM.
With `COc1ccc(-n2cc(C(=O)Nc3ccc(Oc4ccnc5c4ccn5C)c(F)c3)c(=O)c3ccccc32)cc1`, the IC50 in experiment [1] amounted to 3.75 µM; in experiment [2], 6.72 µM; in [3] it was 3.21 µM.
Regarding `O=C(Nc1ccc(Oc2ccnc3[nH]ccc23)c(F)c1)c1cn(-c2ccc(F)c(Cl)c2)c2ccccc2c1=O`, the IC50 was 3.39 µM in [1] and 2.15 µM in [3].
On to `Cn1ccc2c(Oc3ccc(NC(=O)c4cn(-c5ccccc5)c5ccccc5c4=O)cc3F)ccnc21`, for which the IC50 is 2.17 µM in experiment [1], 2.79 µM in experiment [2] and 1.72 µM in experiment [3].
The like results for `O=C(Nc1ccc(Oc2ccnc3[nH]ccc23)c(F)c1)c1cn(-c2ccc(Br)cc2F)c2ccccc2c1=O` were, in that order, 2.2 µM, 1.39 µM and 1.15 µM.
The like results for `O=C(Nc1ccc(Oc2ccnc3[nH]ccc23)cc1)c1cn(-c2ccc(Cl)cc2)c2ccccc2c1=O` were, in that order, 0.25 µM, 1.59 µM and 0.65 µM.
Regarding `O=C(Nc1ccc(Oc2ccnc3[nH]ccc23)cc1)c1cn(-c2ccc(Br)cc2F)c2ccccc2c1=O`, the IC50 in experiment [1] was found to be 0.79 µM; in experiment [3], 1.33 µM.
In the case of `O=C(Nc1ccc(Oc2ccnc3[nH]ccc23)c(F)c1)c1cn(-c2ccccc2)c2ccccc2c1=O`, the IC50 in experiment [1] was found to be 0.76 µM; in [2], 0.43 µM; in [3], 0.42 µM.
The like results for `O=C(Nc1ccc(Oc2ccnc3[nH]ccc23)cc1)c1cn(-c2ccc(F)cc2)c2ccccc2c1=O` were, in that order, 0.45 µM, 0.72 µM and 0.39 µM.
For `O=C(Nc1ccc(Oc2ccnc3[nH]ccc23)c(F)c1)c1cn(-c2ccc(Cl)cc2)c2ccccc2c1=O`, the IC50 was found to be 0.38 µM in experiment [1], 0.041 µM in experiment [4] and 0.32 µM in experiment [3].
`Cn1ccc2c(Oc3ccc(NC(=O)c4cn(-c5ccc(Br)cc5F)c5ccccc5c4=O)cc3F)ccnc21`: the values for the IC50 in experiment [1], in [2] and in experiment [3] were 2.51 µM, 0.42 µM and 1.52 µM, respectively.
Turning to `COc1cc2c(Oc3ccc(NC(=O)C4(C(=O)Nc5ccc(F)cc5)CC4)cc3F)ccnc2cc1OCCCN1CCOCC1` [FORETINIB], the IC50 in experiment [1] came to 0.35 µM; in experiment [2], 0.73 µM; in experiment [3], 0.48 µM.
`COc1ccc(-n2cc(C(=O)Nc3ccc(Oc4ccnc5[nH]ccc45)cc3)c(=O)c3ccccc32)cc1`: the IC50 is 5.95 µM in experiment [1], 4.65 µM in [2] and 4.98 µM in experiment [3].
